The test system of this data set is ICR mice. As to the kind of experiment: Acute toxicity experiment of single oral administration in mice. In kind it is in vivo. Here is the method:
The mice were fasted one day before the experiment. On the day of the experiment, 6 mice (ICR mice, body weight of 19-21 g, three females and three males) were selected in each experiment group. First of all, one female and one male were selected to orally give 1000 mg/Kg, and observed for 5-10 minutes. If there were no obvious side effects, the remaining 4 animals were orally given the same dose, and observed for 10-15 minutes. If no animal died, the animals were placed in a box to balancedly feed for 7 days. The state was observed and the body weight was recorded daily.
Observation Indexes within 0-15 Minutes After Administration
Activity: restlessness, hyperactivity
Nervous system response: tremor, spasm, convulsion, ataxia, posture abnormality, etc.
Autonomic nerve: exophthalmos, salivation, tears, urination (hematuria), diarrhea, piloerection, breathing, etc.
Observation Indexes Over 7 Days
State of Animal: lethargy, hyperactivity, excitement, hair loss, diarrhea, abnormal behavior, death, etc.

Where [1] appears, read: Day 1, 1000 mg/Kg single oral dose.
[2] abbreviates: Day 2, 1000 mg/Kg single oral dose.
[3] abbreviates: Day 3, 1000 mg/Kg single oral dose.
Where [4] appears, read: Day 4, 1000 mg/Kg single oral dose.
Where [5] appears, read: Day 5, 1000 mg/Kg single oral dose.
Setting [6] is: Day 6, 1000 mg/Kg single oral dose.
Where [7] appears, read: Day 7, 1000 mg/Kg single oral dose.
The mark [8] stands for this setting: Day 1, 1000 mg/Kg single oral dose, 1000 mg/kg.
Where [9] appears, read: Day 2, 1000 mg/Kg single oral dose, 1000 mg/kg.
[10] abbreviates: Day 3, 1000 mg/Kg single oral dose, 1000 mg/kg.
Where [11] appears, read: Day 4, 1000 mg/Kg single oral dose, 1000 mg/kg.
[12] abbreviates: Day 5, 1000 mg/Kg single oral dose, 1000 mg/kg.
Where [13] appears, read: Day 6, 1000 mg/Kg single oral dose, 1000 mg/kg.
The mark [14] stands for this setting: Day 7, 1000 mg/Kg single oral dose, 1000 mg/kg.
The mark [15] stands for this setting: Female, 1000 mg/Kg single oral dose.
[16] abbreviates: Male, 1000 mg/Kg single oral dose.

Where “and” joins values, the source holds several entries; their conditions need not be identical. Equal entries are not always repeated.

Take `COCCN1C(=O)CCC(N2C(=O)c3cccc(NC(C)=O)c3C2=O)C1=O` (centres unmarked) [Example 1, 4-acetylamino-2-(1-(2-methoxyethyl)-2,6-dioxopiperidin-3-yl)isoindolin-1,3-dione]: the “Daily Body Weight of Tested Female Mice (Mean ± SD)” value reads like this: under setting [1], 18.5 ± 0.1 g; under setting [2], 22.8 ± 0.3 g; under setting [3], 23.2 ± 0.7 g; under setting [4], 24.0 ± 0.2 g; under setting [5], 25.3 ± 1.6 g; under setting [6], 25.7 ± 1.6 g. For the same molecule, the “Daily Body Weight of Tested Female Mice (Mean ± SD)” value under setting [7] came out at 27.1 ± 1.1 g. Also, the “Daily Body Weight of Tested Male Mice (Mean ± SD)” value is given as 20.1 ± 1.4 g under setting [1]; 23.8 ± 1.4 g under setting [2]; 24.9 ± 1.0 g under setting [3]; 26.3 ± 1.2 g under setting [4]; 27.7 ± 1.3 g under setting [5]; 29.2 ± 1.4 g under setting [6]. Besides, the “Daily Body Weight of Tested Male Mice (Mean ± SD)” value under setting [7] was found to be 29.4 ± 1.4 g.
In the case of `COCCN1C(=O)CCC(N2C(=O)c3cccc(N(C)C)c3C2=O)C1=O` (centres unmarked) [Example 3, 4-dimethylamino-2-(1-(2-methoxyethyl)-2,6-dioxopiperidin-3-yl)isoindolin-1,3-dione], the “Daily Body Weight of Tested Female Mice (Mean ± SD)” value reads like this: under setting [8], 18.3 ± 0.4 g and 18.8 ± 0.4 g; under setting [9], 21.7 ± 0.2 g and 22.1 ± 1.2 g; under setting [10], 22.3 ± 0.2 g and 22.7 ± 0.8 g; under setting [11], 22.6 ± 0.8 g and 23.0 ± 1.4 g; under setting [12], 23.0 ± 1.4 g and 23.7 ± 1.9 g; under setting [13], 22.6 ± 1.3 g and 24.1 ± 1.2 g. For the same molecule, under setting [14], the “Daily Body Weight of Tested Female Mice (Mean ± SD)” value was 22.7 ± 0.4 g and 24.4 ± 1.8 g. Further, the “Daily Body Weight of Tested Male Mice (Mean ± SD)” value was 18.8 ± 0.7 g and 18.0 ± 0.2 g under setting [8]; 23.3 ± 0.1 g and 22.9 ± 0.3 g under setting [9]; 24.3 ± 0.1 g and 24.3 ± 0.9 g under setting [10]; 25.6 ± 0.7 g and 25.2 ± 1.1 g under setting [11]; 26.9 ± 0.8 g and 27.0 ± 1.3 g under setting [12]; 27.9 ± 0.9 g and 28.2 ± 1.9 g under setting [13]. Also, under setting [14], the “Daily Body Weight of Tested Male Mice (Mean ± SD)” value is 28.6 ± 0.4 g and 28.5 ± 2.7 g. The “Summary of toxic response of tested animals in 7 Days” value (shortened to “Summary”) is given as “Abnormality was not observed in 7 days of the test” under setting [15] and “Abnormality was not observed in 7 days of the test” under setting [16].
With `COCCN1C(=O)CCC(N2C(=O)c3ccc(F)c(N)c3C2=O)C1=O` (centres unmarked) [Example 9, 4-amino-S-fluoro-2-(1-(2-methoxyethyl)-2,6-dioxopiperidin-3-yl)isoindolin-1,3-dione], the “Summary” value (mouse, in vivo, po, 1000 mg/kg) is listed as “Abnormality was not observed in 7 days of the test”.
With `COCCN1C(=O)CCC(N2C(=O)c3c(N)ccc(O)c3C2=O)C1=O` (centres unmarked) [Example 10, 4-amino-7-hydroxy-2-(1-(2-methoxyethyl)-2,6-dioxopiperidin-3-yl)isoindolin-1,3-dione], the “Daily Body Weight of Tested Female Mice (Mean ± SD)” value amounted to 19.2 ± 0.5 g under setting [1]; 21.9 ± 0.4 g under setting [2]; 22.4 ± 0.2 g under setting [3]; 22.4 ± 0.2 g under setting [4]; 22.9 ± 0.6 g under setting [5]; 24.1 ± 1.5 g under setting [6]. Also, under setting [7], the “Daily Body Weight of Tested Female Mice (Mean ± SD)” value was determined as 24.2 ± 1.8 g. The “Daily Body Weight of Tested Male Mice (Mean ± SD)” value runs as follows: under setting [1], 19.4 ± 0.3 g; under setting [2], 24.4 ± 0.6 g; under setting [3], 25.5 ± 0.9 g; under setting [4], 25.5 ± 0.9 g; under setting [5], 26.8 ± 0.9 g; under setting [6], 29.2 ± 0.7 g. Moreover, the “Daily Body Weight of Tested Male Mice (Mean ± SD)” value under setting [7] worked out at 30.3 ± 0.7 g. In addition, the “Summary” value reads like this: under setting [15], “Decrease of activity was observed in all the animals within 30”; under setting [16], “Decrease of activity was observed in all the animals within 30”.
For the molecule `CSCCN1C(=O)CCC(N2C(=O)c3cccc(N)c3C2=O)C1=O` (centres unmarked) [Example 11, 4-amino-2-(1-(2-methylthioethyl)-2,6-dioxopiperidin-3-yl)isoindolin-1,3-dione], the “Daily Body Weight of Tested Female Mice (Mean ± SD)” value reads like this: under setting [1], 18.1 ± 0.2 g; under setting [2], 21.7 ± 0.2 g; under setting [3], 22.4 ± 0.1 g; under setting [4], 22.4 ± 0.1 g; under setting [5], 23.5 ± 0.4 g; under setting [6], 23.2 ± 0.8 g. Also, the “Daily Body Weight of Tested Female Mice (Mean ± SD)” value under setting [7] amounted to 23.2 ± 0.9 g. Besides, the “Daily Body Weight of Tested Male Mice (Mean ± SD)” value under setting [1] amounted to 19.5 ± 0.6 g; the “Daily Body Weight of Tested Male Mice (Mean ± SD)” value under setting [2] amounted to 23.7 ± 0.8 g; the “Daily Body Weight of Tested Male Mice (Mean ± SD)” value under setting [3] was determined as 25.4 ± 0.4 g; the “Daily Body Weight of Tested Male Mice (Mean ± SD)” value under setting [4] is reported as 25.4 ± 0.4 g; the “Daily Body Weight of Tested Male Mice (Mean ± SD)” value under setting [5] came to 27.0 ± 0.5 g; the “Daily Body Weight of Tested Male Mice (Mean ± SD)” value under setting [6] is on record as 29.0 ± 0.7 g. Further, under setting [7], the “Daily Body Weight of Tested Male Mice (Mean ± SD)” value is on record as 29.8 ± 1.0 g. Further, the “Summary” value reads like this: under setting [15], “Decrease of activity was observed in one animal after”; under setting [16], “Abnormality was not observed in 7 days of the test”.
Regarding `COCCCN1C(=O)CCC(N2C(=O)c3ccc(N)cc3C2=O)C1=O` (centres unmarked) [Example 18, 5-amino-2-(1-(3-methoxypropyl)-2,6-dioxopiperidin-3-yl)isoindolin-1,3-dione], the “Daily Body Weight of Tested Female Mice (Mean ± SD)” value stood at 18.4 ± 0.7 g under setting [1]; 22.5 ± 0.8 g under setting [2]; 23.8 ± 1.1 g under setting [3]; 24.8 ± 1.5 g under setting [4]; 24.8 ± 0.6 g under setting [5]; 25.4 ± 0.7 g under setting [6]. Moreover, the “Daily Body Weight of Tested Female Mice (Mean ± SD)” value under setting [7] turned out to be 25.2 ± 1.1 g. In addition, the “Daily Body Weight of Tested Male Mice (Mean ± SD)” value is, setting by setting: under setting [1], 18.2 ± 0.4 g; under setting [2], 23.0 ± 0.7 g; under setting [3], 24.1 ± 0.4 g; under setting [4], 25.6 ± 0.8 g; under setting [5], 28.1 ± 1.1 g; under setting [6], 29.0 ± 1.4 g. Under setting [7], the “Daily Body Weight of Tested Male Mice (Mean ± SD)” value is listed as 29.0 ± 1.0 g.

The record behind these values is patent publication US11873287B2, “Piperidine-2,6-dione derivatives and ulcerative colitis treating” (TIANJIN HEMAY PHARMACEUTICAL SCI-TECH CO., LTD, priority 2016, dated 2024).
